Like-named read-outs stand apart in the source and are kept apart here.
What was measured:
P-gp [1] = conditions: cited from earlier work
P-gp [2] = biological target: T1, P-gp (Homo sapiens, UniProt P08183); experiment: P-gp substrate accumulation assay (flow cytometry) in hCMEC/D3 cells; type: cell-based
Text: (§1) One of the goals of the designed TH heterodimers is to inhibit P-gp-mediated efflux. A substrate accumulation assay was used to evaluate the potency of Aba-S2-NFV1 and Aba-S2-DRV8 as P-gp inhibitors using the P-gp substrates calcein-AM and NBD-Aba.[38],[39] Two cell lines were used to monitor the accumulation of these fluorescent P-gp substrates: 12D7-MDR cells which are CD4+ T lymphocytes with overexpression of P-gp,[40] and hCMEC/D3 cells as an in vitro BBB model cell line.[41] hCMEC/D3 cells are an immortalized human brain capillary endothelial cell line that expresses endogenous levels of P-gp.[42],[43] Inhibition of P-gp efflux was measured by monitoring the increase in cellular fluorescence with added heterodimer by flow cytometry.
(§2) The growth of cells was maintained at 37 °C in 5% CO2. hCMEC/D3 cells were cultured according to literature protocols with minor modifications.[41]
(§3) Flow cytometry was used to estimate P-gp inhibition using a substrate accumulation assay as described previously with some minor changes.[38] […] The cells were harvested by centrifugation at 300g at 4 °C for 7 min. The supernatant was carefully removed, and 400 μL of cold, sterile PBS was added to the cell pellet. […] The mean fluorescence value for each concentration corresponded to 10 000 cells. Each sample was run in duplicate, and all the experiments were run in duplicates on two different days. The average fluorescence accumulated in the cells for samples was used to plot the mean fluorescence vs concentration, and the IC50 values were estimated using GraphPad Prism.

in vitro = type: cell-based; conditions: human
Procedure: An MTT assay was used to determine the cell toxicity of Aba-S2-NFV1 and Aba-S2-DRV8 in the 12D7-MDR cell lines after 24 h.[44]
The viability of 12D7-MDR cells in the presence of a TH heterodimer (Aba-S2-NFV1 or Aba-S2-DRV8) was measured using the standard MTT assay.[44] 20 000 12D7-MDR cells were plated in 96-well plate in 100 μL of cell medium. After 12 h, TH heterodimer in medium was added to each well to give a final concentration of 5, 10, and 20 μM (1% DMSO). After 24 h 20 μL of MTT in PBS (5 mg/mL) was added to all the wells and incubated for 2.5 h. The 96-well plates were centrifuged at 300g for 7 min, followed by careful removal of supernatant. 100 μL of DMSO was added to dissolve the formazan. The absorbance of the DMSO solution was read using a plate reader at 590 nm. Cell viability was reported as the ratio of absorbance of cells treated with TH heterodimer relative to cells treated with DMSO.

[3] = Stability of prodrugs in PBS and cell culture media; type: physicochemical; conditions: 37 °C
Procedure: (§4) To investigate if Aba-S2-NFV1 and Aba-S2-DRV8 are effective against HIV-1 in cells, an in vitro HIV-1 titer assay was performed using the 12D7 cell line. 12D7 cells were infected with HIV-1LAI, and anti-HIV-1 activity was measured by monitoring p24 protein levels as previously described.[45],[46] First the stability of the prodrugs was monitored in PBS and cell culture media using UPLC–MS. […] Therefore, for the cell-based anti-HIV-1 experiments, the medium, with drugs, was changed every 3 days. […] (Figure 2). […] Thus, this difference in chemical connectivity leads to a difference in monomer release that may be responsible for the differences in anti-HIV-1 potency.
The cell media stability studies for the TH heterodimers (Aba-S2-NFV1 or Aba-S2-DRV8) were carried out following a previously published protocol with some modifications.[32] Heterodimers (100 μM) were incubated at 37 °C in the cell medium used for 12D7 cells (complete RPMI 1640 medium with 50 units/mL of penicillin and 50 μg/mL streptomycin, 5 mM of L-glutamine, and 10% FBS) with 1% DMSO. Every 24 h ice-cold acetonitrile with 4-methoxybenzyl alcohol (1.0 mM) was added to an aliquot of the reaction mixture (1:1). The resultant solution was vortexed for 1 min, sonicated for 10 min, and centrifuged twice at 10 000g for 10 min each. The supernatant was stored at −80 °C. All samples were analyzed using a C8 analytical column (Phenomenex, USA) on RP-HPLC with eluent consisting of solvent A (water and 0.05% TFA) and solvent B (acetonitrile and 0.05% TFA). A gradient of 15–75% solvent B over 30 min with a flow rate of 1.2 mL/min and UV detection at 254 nm was used. The assays were performed in duplicate.

HIV-1LAI = experiment: HIV-1 cell inhibition assay (p24 ELISA) in infected 12D7 cells; type: cell-based; conditions: HIV-1LAI infected 12D7 cells; 6 days; medium with drug changed after 3 days; Figure 2
Procedure: as §4
12D7 cells were grown in the identical medium for the cell culture medium stability studies. The cells in log-phase were pelleted and resuspended at 1 million cells per mL. 500 TCID50 HIV-1LAI was used to infect cells for 4 h using a known procedure.[45] These infected cells were plated at a density of 75 000 cells per mL in 48-well plates after three washes with the medium. Different concentrations of the compound of interest were added keeping the DMSO concentration at 0.05%. […] On the sixth day, the supernatant was analyzed using ELISA to quantify the amount of HIV-1 p24 (gag) protein generated in each sample.[46] […]

P-gp [4] = biological target: T1, P-gp; experiment: P-gp substrate accumulation assay (flow cytometry) in 12D7-MDR cells; type: cell-based; set-up: host or cells: 12D7-MDR cells (CD4+ T lymphocytes, kept under vincristine); conditions: for IC50: 12D7-MDR cells, 30 min, 1% DMSO
Text: as §1, §2, §3

[5] = Reversion of TH heterodimers into monomers in a reducing environment (DTT or GSH), UPLC-MS; type: physicochemical; conditions: ratio of t1/2 values (DTT)
Procedure: The breakdown of the TH heterodimers with DTT and glutathione (GSH) and the release of monomers were monitored using UPLC–MS at various time points. The reduction of the heterodimers to free thiols occurs rapidly, with full reduction observed within 1 h. Upon appearance of free thiols, the subsequent rearrangement led to the generation of the component monomeric drugs. […] This significant difference in monomer release is likely due to the differences in the chemical connectivity of the monomers. NFV, as described above, is connected to the tether via a phenolic moiety, whereas DRV is linked by a secondary alcohol. The better leaving group ability of the phenol versus the secondary alcohol likely leads to the observed difference in monomer regeneration.
Stability studies with DTT and GSH were adapted from a previously published protocol with some changes.[32] […] When monitoring NFV and DRV release, an aliquot of the reaction mixture was taken at different time points and directly analyzed by UPLC–MS. […] The time points were analyzed using RP-UPLC with a C18 column consisting of solvent A (water and 0.1% formic acid) and solvent B (acetonitrile and 0.1% formic acid), a gradient of 5–95% of solvent B over 10 min, and a flow rate of 0.5 mL/min. […]

[6] = NBD-Aba 5 μM, 30 min, 1% DMSO, read-out: IC50, inhibition of P-gp mediated efflux of NBD-Aba
[7] = calcein-AM 0.25 μM, 30 min, 1% DMSO, read-out: IC50, inhibition of P-gp mediated efflux of calcein-AM
[8] = NBD-Aba 5 μM, read-out: IC50, inhibition of P-gp mediated efflux of NBD-Aba
[9] = calcein-AM 0.25 μM, read-out: IC50, inhibition of P-gp mediated efflux of calcein-AM

T1 sequence (P08183 whole entry): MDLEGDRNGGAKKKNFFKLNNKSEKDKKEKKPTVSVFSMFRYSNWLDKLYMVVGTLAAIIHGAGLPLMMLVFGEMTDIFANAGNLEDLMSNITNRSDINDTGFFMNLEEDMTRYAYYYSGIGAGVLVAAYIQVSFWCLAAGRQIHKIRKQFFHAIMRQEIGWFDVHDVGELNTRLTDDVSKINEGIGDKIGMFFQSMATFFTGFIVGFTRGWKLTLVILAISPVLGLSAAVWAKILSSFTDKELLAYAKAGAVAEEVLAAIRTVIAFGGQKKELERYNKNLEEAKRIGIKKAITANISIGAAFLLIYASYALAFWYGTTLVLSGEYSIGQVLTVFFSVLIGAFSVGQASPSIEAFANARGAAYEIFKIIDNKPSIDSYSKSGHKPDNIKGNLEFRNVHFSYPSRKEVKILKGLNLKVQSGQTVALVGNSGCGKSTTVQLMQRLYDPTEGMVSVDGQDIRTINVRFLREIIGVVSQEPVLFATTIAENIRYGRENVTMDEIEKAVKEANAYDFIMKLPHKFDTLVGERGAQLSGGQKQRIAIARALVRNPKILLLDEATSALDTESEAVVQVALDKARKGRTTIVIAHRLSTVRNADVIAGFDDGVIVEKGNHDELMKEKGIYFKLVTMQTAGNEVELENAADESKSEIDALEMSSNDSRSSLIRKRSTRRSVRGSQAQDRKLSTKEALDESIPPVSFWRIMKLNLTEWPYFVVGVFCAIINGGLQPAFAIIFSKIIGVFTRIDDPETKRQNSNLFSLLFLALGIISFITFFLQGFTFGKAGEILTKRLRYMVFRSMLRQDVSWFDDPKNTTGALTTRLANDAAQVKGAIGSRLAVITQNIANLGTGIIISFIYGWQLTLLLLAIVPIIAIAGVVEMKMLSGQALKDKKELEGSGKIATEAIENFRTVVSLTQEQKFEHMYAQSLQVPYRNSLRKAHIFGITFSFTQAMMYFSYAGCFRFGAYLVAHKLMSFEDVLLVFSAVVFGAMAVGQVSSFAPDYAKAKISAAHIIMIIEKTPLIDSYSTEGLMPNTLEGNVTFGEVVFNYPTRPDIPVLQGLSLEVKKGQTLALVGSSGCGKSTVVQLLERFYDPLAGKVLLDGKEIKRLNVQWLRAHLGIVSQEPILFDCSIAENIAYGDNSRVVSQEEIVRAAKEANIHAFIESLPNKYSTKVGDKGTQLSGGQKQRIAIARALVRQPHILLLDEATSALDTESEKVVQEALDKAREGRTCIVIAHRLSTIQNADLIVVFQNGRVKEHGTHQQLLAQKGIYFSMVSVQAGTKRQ

Row | IC50 (P-gp [2]; [6]) | IC50 (P-gp [2]; [7]) | IC50 (P-gp [4]; [8]) | IC50 (P-gp [4]; [9]) | SMILES | viability at 24 h, 20 µM (in vitro) | anti-HIV-1 activity (HIV-1 p24 levels) (HIV-1LAI) | also measured
1 |  |  |  |  | Nc1nc(NC2CC2)c2ncn([C@H]3C=C[C@@H](CO)C3)c2n1 [Aba, abacavir] |  |  | increase of brain accumulation in P-gp null mice as compared to wild-type mice (P-gp [1]; P-gp null mice vs wild-type mice): 20 fold
2 | 90 ± 20 nM | 80 ± 20 nM | 510 ± 80 nM | 500 ± 40 nM | CC(C)CN(C[C@@H](OC(=O)CCCSSCCCC(=O)OC[C@@H]1C=C[C@H](n2cnc3c(NC4CC4)nc(N)nc32)C1)[C@H](Cc1ccccc1)NC(=O)O[C@H]1CO[C@H]2OCC[C@H]21)S(=O)(=O)c1ccc(N)cc1 [Aba-S2-DRV8, abacavir-S2-darunavir-8] | 70% | less potent than the 1:1 mixture of Aba and DRV | IC50 (P-gp [2]; calcein-AM and NBD-Aba substrates, read-out: IC50 values, inhibition of P-gp efflux): 80 to 90 nM; stability of prodrug beyond 3 days [3]: decomposition observed after day 4; prodrug intact ([3]; after 3 days): greater than 95%
3 | 410 ± 60 nM | 590 ± 70 nM | 650 ± 90 nM | 770 ± 50 nM | Cc1c(OC(=O)CCCSSCCCC(=O)OC[C@@H]2C=C[C@H](n3cnc4c(NC5CC5)nc(N)nc43)C2)cccc1C(=O)N[C@@H](CSc1ccccc1)[C@H](O)CN1C[C@H]2CCCC[C@H]2C[C@H]1C(=O)NC(C)(C)C [Aba-S2-NFV1, abacavir-S2-nelfinavir-1] | > 95% | superior potency as compared to Aba-S2-DRV8 | fold faster release of NFV from Aba-S2-NFV1 than DRV release from Aba-S2-DRV8 [5]: 18 fold; prodrug intact ([3]; after 1 week): greater than 95%; fold increase in inhibition of P-gp as compared to the monomeric PI (NFV or DRV) (P-gp [4]; ratio of IC50 values of Table 1, 12D7-MDR and hCMEC/D3 cells, calcein-AM and NBD-Aba): 3- to 12 fold
4 |  |  |  |  | Cc1c(O)cccc1C(=O)N[C@@H](CSc1ccccc1)[C@H](O)CN1C[C@H]2CCCC[C@H]2C[C@H]1C(=O)NC(C)(C)C [NFV, nelfinavir] |  |  | increase of brain accumulation in P-gp null mice as compared to wild-type mice (P-gp [1]; mouse, not told): 36 fold

Row | SMILES | IC50 (P-gp [2]; [6]) | IC50 (P-gp [2]; [7]) | IC50 (P-gp [4]; [8]) | IC50 (P-gp [4]; [9]) | viability at 24 h, 20 µM (in vitro) | anti-HIV-1 activity (HIV-1 p24 levels) (HIV-1LAI) | also measured
5 | CC(C)CN(C[C@@H](O)[C@H](Cc1ccccc1)NC(=O)O[C@H]1CO[C@H]2OCC[C@H]21)S(=O)(=O)c1ccc(N)cc1 [DRV, darunavir, reference compound] | 15400 ± 3200 nM | 6600 ± 1900 nM | 60000 ± 9400 nM | 33200 ± 6500 nM |  |  | 
